According to ChEMBL document CHEMBL4602732, “Optimizing Pyrazolopyrimidine Inhibitors of Calcium Dependent Protein Kinase 1 for Treatment of Acute and Chronic Toxoplasmosis” (J Med Chem, 2020):

How the values were obtained:
[1] = AUC in CD1 mouse at 3 mg/kg, iv or 10 mg/kg, po administered via gavage by LC-MS/MS analysis; format: ADME, organism-based; details: in vivo
[2] = Cytotoxicity against human SH-SY5Y cells assessed as cell growth at 20 uM measured after 72 hrs by cellTiter 96 AQueous non-radioactive cell proliferation assay relative to control; format: cell-based; details: read-out: Activity
[3] = Cytotoxicity against human HepG2 cells assessed as cell growth at 20 uM measured after 72 hrs by cellTiter 96 AQueous non-radioactive cell proliferation assay relative to control; format: cell-based; details: read-out: Activity
MDR1 = assay: Efflux ratio of apparent permeability across basolateral to apical side over apical to basolateral side in MDCK2-MDR1 cells at 2 uM measured after 150 mins by LC-MS/MS analysis; format: ADME, cell-based, Canis lupus familiaris; details: dog, MDCK-MDR1
Aldehyde oxidase = target: T1, Aldehyde oxidase (Homo sapiens, UniProt Q06278); assay: Drug metabolism in human liver S9 fraction assessed as aldehyde oxidase-mediated drug metabolism by measuring rate of parent compound decay at 1 uM measured after 90 mins by LC-MS/MS analysis; format: ADME, subcellular
T1 sequence (Q06278 whole entry): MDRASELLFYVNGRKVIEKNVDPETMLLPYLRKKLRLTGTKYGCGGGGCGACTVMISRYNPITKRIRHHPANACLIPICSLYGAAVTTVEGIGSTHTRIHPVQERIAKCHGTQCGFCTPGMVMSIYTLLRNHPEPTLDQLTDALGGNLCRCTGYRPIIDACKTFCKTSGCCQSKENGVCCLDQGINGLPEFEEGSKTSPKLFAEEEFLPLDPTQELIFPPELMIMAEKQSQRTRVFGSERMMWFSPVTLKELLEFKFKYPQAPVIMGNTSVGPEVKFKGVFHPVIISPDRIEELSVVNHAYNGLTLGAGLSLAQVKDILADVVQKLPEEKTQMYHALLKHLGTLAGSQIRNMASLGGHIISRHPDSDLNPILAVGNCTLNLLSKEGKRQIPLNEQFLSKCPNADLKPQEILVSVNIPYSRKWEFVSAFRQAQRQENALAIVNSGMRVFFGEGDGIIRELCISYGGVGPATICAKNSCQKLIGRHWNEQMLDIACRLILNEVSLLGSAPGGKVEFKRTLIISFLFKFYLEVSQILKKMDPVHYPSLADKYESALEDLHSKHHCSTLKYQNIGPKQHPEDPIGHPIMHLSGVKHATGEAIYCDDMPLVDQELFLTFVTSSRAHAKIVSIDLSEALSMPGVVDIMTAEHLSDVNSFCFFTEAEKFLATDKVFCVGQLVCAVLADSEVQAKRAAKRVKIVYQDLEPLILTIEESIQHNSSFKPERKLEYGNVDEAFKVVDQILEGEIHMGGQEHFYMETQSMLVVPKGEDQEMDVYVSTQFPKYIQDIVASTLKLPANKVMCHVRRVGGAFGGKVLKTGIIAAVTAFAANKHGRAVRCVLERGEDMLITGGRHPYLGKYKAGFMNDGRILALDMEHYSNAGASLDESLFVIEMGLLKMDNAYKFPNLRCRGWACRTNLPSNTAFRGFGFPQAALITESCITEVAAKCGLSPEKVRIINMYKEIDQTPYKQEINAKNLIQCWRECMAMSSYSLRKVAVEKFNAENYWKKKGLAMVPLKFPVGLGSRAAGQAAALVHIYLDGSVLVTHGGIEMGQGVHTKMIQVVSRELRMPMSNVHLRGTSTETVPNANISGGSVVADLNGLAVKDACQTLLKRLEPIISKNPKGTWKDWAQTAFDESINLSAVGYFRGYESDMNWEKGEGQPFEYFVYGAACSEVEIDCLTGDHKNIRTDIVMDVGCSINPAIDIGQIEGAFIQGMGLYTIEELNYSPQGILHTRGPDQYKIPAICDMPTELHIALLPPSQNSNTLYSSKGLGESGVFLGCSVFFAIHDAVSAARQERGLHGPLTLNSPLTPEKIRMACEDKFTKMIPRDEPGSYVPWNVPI

[4] = Half life in human liver microsomes at 10 uM preincubated for 10 mins followed by NADPH addition by LC-MS/MS analysis; format: ADME, Microsome; details: liver microsomes
[5] = Cytotoxicity against human Caco2 cells assessed as cell growth at 20 uM measured after 72 hrs by cellTiter 96 AQueous non-radioactive cell proliferation assay relative to control; format: cell-based, Caco-2; details: read-out: Activity
[6] = Inhibition of Toxoplasma gondii full-length wild-type C-terminal His-tagged CDPK1 expressed in Escherichia coli BL21(DE3)V2RpAcYc-LIC+LamP using syntide-2 peptide as substrate incubated for 20 to 40 mins by ELISA
Toxoplasma gondii [7] = assay: Antiparasitic activity against type 2 Toxoplasma gondii ME49 tachyzoites infected in HFF assessed as reduction in parasite growth; format: functional, organism-based
[8] = Protein binding in mouse brain assessed as unbound fraction; format: ADME, tissue-based
[9] = Cmax in CD1 mouse at 3 mg/kg, iv or 10 mg/kg, po administered via gavage by LC-MS/MS analysis; format: ADME, organism-based; details: in vivo
[10] = Apparent permeability across apical to basolateral side in MDCK2-MDR1 cells at 2 uM measured after 150 mins by LC-MS/MS analysis; format: ADME, cell-based, Canis lupus familiaris; details: dog, mdck-mdr1, […]
[11] = Cytotoxicity against HFF monolayers assessed as cell growth measured after 72 hrs by luciferase reporter gene assay relative to control; format: cell-based; details: human, read-out: Activity
[12] = Inhibition of Toxoplasma gondii full-length C-terminal His-tagged CDPK1 G128M mutant expressed in Escherichia coli BL21(DE3)V2RpAcYc-LIC+LamP using syntide-2 peptide as substrate incubated for 20 to 40 mins by ELISA
[13] = Kinetic solubility of the compound in pH 7.4 phosphate buffer measured after 24 hrs by UV-HPLC analysis; format: physicochemical; details: pH 7.4, 24 h
Toxoplasma gondii [14] = assay: Antiparasitic activity against 2F clone of type 1 Toxoplasma gondii RH tachyzoites expressing beta-galactosidase infected in HFF assessed as reduction in parasite growth measured after 72 hrs by chlorophenol Red-beta-D-galactopyranoside substrate based assay; format: functional, organism-based
Toxoplasma gondii [15] = assay: Antiparasitic activity against Toxoplasma gondii type III CTG tachyzoites infected in HFF assessed as reduction in parasite growth; format: functional, organism-based
[16] = target: Voltage-gated inwardly rectifying potassium channel KCNH2 (Homo sapiens, UniProt Q12809); assay: Inhibition of human ERG expressed in CHOK1 cells by patch-clamp electrophysiology assay; format: cell-based, CHO-K1
[17] = Clearance in human hepatocytes assessed per million cells at 1 uM by LC-MS/MS analysis; format: ADME, cell-based, Hepatocyte
[18] = Protein binding in mouse plasma assessed as unbound fraction at 2 uM measured after 4 hrs by LC-MS/MS analysis; format: ADME, cell-free
[19] = test system: Src (human) versus Toxoplasma gondii CDPK1; assay: Selectivity ratio of IC50 for inhibition of human Src expressed in Escherichia coli BL21 to IC50 for inhibition of Toxoplasma gondii full-length wild-type C-terminal His-tagged CDPK1 expressed in Escherichia coli BL21(DE3)V2RpAcYc-LIC+LamP; format: toxicity; details: read-out: Ratio IC50
[20] = Cytotoxicity against human CMEC/D3 cells assessed as cell growth at 20 uM measured after 72 hrs by cellTiter 96 AQueous non-radioactive cell proliferation assay relative to control; format: cell-based, hCMEC/D3; details: read-out: Activity
[21] = Intrinsic clearance in human liver microsomes at 10 uM preincubated for 10 mins followed by NADPH addition by LC-MS/MS analysis; format: ADME, Microsome; details: read-out: CLH
[22] = target: Proto-oncogene tyrosine-protein kinase Src (Homo sapiens, UniProt P12931); assay: Inhibition of human Src expressed in Escherichia coli BL21 using Abltide peptide as substrate incubated for 20 to 40 mins by ELISA
[23] = Ratio of drug level in central nervous system to plasma in CD1 mouse at 10 mg/kg, po administered via gavage measured after 8 hrs by LC-MS/MS analysis; format: ADME, organism-based, CNS/Plasma; details: central nervous system and plasma
[24] = Cytotoxicity against MDCK cells assessed as cell growth at 20 uM measured after 72 hrs by cellTiter 96 AQueous non-radioactive cell proliferation assay relative to control; format: cell-based, Canis lupus familiaris; details: dog, read-out: Activity
[25] = Half life in CD1 mouse at 3 mg/kg, iv or 10 mg/kg, po administered via gavage by LC-MS/MS analysis; format: ADME, organism-based; details: in vivo
LCK = LCK (Homo sapiens, UniProt P06239); assay: Inhibition of wild-type human partial length LCK (R207 to P509 residues) expressed in bacterial expression system at 10 uM by Kinomescan method relative to control
[26] = Half life in mouse liver microsomes at 10 uM preincubated for 10 mins followed by NADPH addition by LC-MS/MS analysis; format: ADME, Microsome; details: microsomes, 10 µM
[27] = Oral bioavailability in CD1 mouse at 10 mg/kg administered via gavage by LC-MS/MS analysis; format: ADME, organism-based; details: in vivo

Sequence of Proto-oncogene tyrosine-protein kinase Src (P12931 2-536 limits assumed): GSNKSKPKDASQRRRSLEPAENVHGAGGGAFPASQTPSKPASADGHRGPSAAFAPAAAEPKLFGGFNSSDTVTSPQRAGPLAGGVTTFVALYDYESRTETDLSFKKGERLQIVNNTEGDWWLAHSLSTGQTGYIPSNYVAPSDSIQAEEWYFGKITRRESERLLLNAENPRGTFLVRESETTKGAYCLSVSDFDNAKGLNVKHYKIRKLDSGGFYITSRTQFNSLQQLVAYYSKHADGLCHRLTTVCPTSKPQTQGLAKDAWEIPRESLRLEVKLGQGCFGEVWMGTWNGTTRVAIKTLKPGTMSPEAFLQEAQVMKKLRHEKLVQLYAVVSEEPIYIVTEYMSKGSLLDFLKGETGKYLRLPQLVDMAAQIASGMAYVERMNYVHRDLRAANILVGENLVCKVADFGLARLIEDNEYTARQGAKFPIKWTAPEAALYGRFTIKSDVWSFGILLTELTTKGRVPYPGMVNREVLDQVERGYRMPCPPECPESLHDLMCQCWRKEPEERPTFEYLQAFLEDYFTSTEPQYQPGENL
Sequence of Voltage-gated inwardly rectifying potassium channel KCNH2 (Q12809 whole entry): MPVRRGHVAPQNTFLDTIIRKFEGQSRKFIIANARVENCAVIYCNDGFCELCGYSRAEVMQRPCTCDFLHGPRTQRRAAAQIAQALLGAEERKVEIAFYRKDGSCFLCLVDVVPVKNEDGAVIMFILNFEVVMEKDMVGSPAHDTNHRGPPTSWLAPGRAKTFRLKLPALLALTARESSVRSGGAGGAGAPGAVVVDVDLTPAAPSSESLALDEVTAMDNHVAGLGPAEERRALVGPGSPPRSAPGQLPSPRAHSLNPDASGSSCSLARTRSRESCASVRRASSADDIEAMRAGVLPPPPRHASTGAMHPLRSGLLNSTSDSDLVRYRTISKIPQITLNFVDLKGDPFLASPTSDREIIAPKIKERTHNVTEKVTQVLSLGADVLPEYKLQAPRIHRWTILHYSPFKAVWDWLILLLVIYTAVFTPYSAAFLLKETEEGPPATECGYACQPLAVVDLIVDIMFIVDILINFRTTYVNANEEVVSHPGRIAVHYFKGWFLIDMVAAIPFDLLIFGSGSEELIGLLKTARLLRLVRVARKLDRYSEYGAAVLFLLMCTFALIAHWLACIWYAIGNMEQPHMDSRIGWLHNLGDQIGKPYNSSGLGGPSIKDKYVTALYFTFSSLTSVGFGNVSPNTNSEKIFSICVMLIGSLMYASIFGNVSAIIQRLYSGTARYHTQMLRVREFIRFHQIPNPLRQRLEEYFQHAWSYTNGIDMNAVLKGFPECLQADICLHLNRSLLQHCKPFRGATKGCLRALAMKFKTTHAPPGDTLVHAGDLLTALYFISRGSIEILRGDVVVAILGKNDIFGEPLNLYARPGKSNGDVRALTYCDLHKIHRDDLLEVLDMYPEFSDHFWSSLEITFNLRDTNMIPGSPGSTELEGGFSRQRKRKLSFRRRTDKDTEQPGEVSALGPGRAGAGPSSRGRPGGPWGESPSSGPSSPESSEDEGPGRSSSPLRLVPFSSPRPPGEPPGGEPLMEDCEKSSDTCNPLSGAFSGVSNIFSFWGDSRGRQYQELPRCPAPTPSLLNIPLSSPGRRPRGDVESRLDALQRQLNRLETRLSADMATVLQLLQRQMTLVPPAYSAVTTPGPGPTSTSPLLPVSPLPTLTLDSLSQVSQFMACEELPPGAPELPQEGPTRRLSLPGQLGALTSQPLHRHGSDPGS
Sequence of LCK (P06239 whole entry, the tested form may be a part): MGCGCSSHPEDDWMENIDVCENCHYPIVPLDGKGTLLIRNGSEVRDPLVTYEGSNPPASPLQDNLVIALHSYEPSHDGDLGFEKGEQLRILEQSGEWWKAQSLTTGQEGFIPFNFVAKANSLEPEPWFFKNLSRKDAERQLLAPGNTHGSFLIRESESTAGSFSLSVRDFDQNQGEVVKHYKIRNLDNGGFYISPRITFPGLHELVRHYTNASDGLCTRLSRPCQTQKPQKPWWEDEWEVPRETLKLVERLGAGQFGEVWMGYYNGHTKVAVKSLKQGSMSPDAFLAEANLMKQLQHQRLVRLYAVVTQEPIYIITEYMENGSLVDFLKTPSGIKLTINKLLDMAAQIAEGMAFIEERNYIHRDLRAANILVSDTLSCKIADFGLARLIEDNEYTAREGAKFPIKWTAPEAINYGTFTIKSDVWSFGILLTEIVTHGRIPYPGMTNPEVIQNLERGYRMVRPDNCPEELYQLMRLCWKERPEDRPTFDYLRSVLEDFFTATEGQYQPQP

In the case of `Nc1ncnc2c1c(Oc1cc(C(F)(F)F)ccn1)nn2[C@@H]1CCCC[C@H]1O`, the AUC [1] is reported as 1100 ng·h/mL, the viability at 72 h, 20 µM [2] is reported as 105% and the viability at 72 h, 20 µM [3] is reported as 99%. For the same molecule, the efflux ratio at […], 2 µM (MDR1) was 1.23, the Drug metabolism (Aldehyde oxidase) was < 3.2 µL/min/mg and the half-life at 10 µM [4] was > 2.42 h. The viability at 72 h, 20 µM [5] was 100%, the IC50 [6] was 6.6 nM and the EC50 (Toxoplasma gondii [7]) was 89.6 nM. For the same molecule, the fraction unbound [8] was 0.041, the Cmax [9] was 620 ng/mL and the Papp [10] was 21.43 ×10⁻⁶ cm/s. For the same molecule, the viability at 72 h [11] was 107%, the IC50 [12] was > 20000 nM and the Kinetic_solubility [13] was 92.73 µM. For the same molecule, the EC50 (Toxoplasma gondii [14]) was 77 to 77.5 nM, the EC50 (Toxoplasma gondii [15]) was 227 nM and the IC50 [16] was > 30000 nM. For the same molecule, the CLH [17] was < 6.4 µL/min/1e6 cells, the Fu [18] was 24.3% and the selectivity ratio [19] was > 1000. The viability at 72 h, 20 µM [20] was 126%, the CLint scaled at 10 µM [21] was < 8.6 mL/min/kg and the IC50 [22] was > 20000 nM. The Kp at 8 h [23] was 0.47, the viability at 72 h, 20 µM [24] was 77.3% and the t1/2 [25] was 2.17 h. For the same molecule, the inhibition at 10 µM (LCK) was 45%, the t1/2 [26] was 1.1 h and the bioavailability [27] was 48.9%.
